# Experimental data from ChEMBL document CHEMBL1201862, “PubChem BioAssay data set” (2004).
# Activity calls are given as the source filed them.
# Tests used:
# [1] = test system: Vero; test: cells; format: functional, cell-based; conditions: Chlorocebus sabaeus
# [2] = test system: Vero; test: cells; format: functional; conditions: Chlorocebus sabaeus
# [3] = molecular target: Intestinal-type alkaline phosphatase (Mus musculus, UniProt P24822); test: PubChem AID 488785; format: functional
# [4] = molecular target: T1, Alkaline phosphatase, tissue-nonspecific isozyme (Homo sapiens, UniProt P05186); test: TNAP enzyme inhibition by screening hits, dose response, selectivity assay for mouse IAP inhibitor project, biochemical, human TNAP, uHTS hits (AID 488906); format: functional
# T1 sequence (P05186 whole entry): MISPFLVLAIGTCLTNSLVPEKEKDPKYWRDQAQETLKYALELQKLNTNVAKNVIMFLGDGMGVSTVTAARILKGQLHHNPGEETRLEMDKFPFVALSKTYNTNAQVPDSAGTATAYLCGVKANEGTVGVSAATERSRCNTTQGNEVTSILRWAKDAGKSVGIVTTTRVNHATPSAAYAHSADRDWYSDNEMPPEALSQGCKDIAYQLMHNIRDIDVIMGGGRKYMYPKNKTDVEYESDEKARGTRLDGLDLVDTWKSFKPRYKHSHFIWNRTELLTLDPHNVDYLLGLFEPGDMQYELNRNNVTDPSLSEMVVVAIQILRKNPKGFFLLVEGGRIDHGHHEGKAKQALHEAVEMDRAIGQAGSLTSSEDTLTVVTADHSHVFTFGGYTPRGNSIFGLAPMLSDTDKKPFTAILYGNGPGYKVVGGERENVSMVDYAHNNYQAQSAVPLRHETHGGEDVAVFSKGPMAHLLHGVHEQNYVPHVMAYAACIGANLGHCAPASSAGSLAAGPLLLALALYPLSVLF
# [5] = molecular target: Intestinal-type alkaline phosphatase (Homo sapiens, UniProt P09923); test: inhibition of human intestinal alkaline phosphatase – biochemical, dose response (AID 488876); format: functional
# [6] = test system: H9c2; test: cells; format: functional, cell-based; conditions: Rattus norvegicus, H9c2, Myocardium;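 also: confirmatory concentration-response retest of ultra-high-throughput screening hits for modulation of myocardial damage; cell death induced by hydrogen peroxide oxidative stress; compound pretreatment for 60 min then peroxide exposure for 2 h; potency is for protecting the cells against peroxide damage rather than for killing them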
# [7] = molecular target: T2, Probable nicotinate-nucleotide adenylyltransferase (Staphylococcus aureus (strain N315), UniProt P65502); format: functional, Staphylococcus aureus subsp. aureus N315;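 as to IC50 Mean: confirmatory dose-response retesting of NadD inhibitor hits first found in an ultra-high-throughput screen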
# [8] = molecular target: T2, Probable nicotinate-nucleotide adenylyltransferase; format: functional, Staphylococcus aureus subsp. aureus N315; conditions: read-out: IC50_Mean
# [9] = Trypanosoma cruzi growth suppression in host cells – NIH3T3 host cells, beta-gal luminescence, confirmation (AID 2044); format: functional, cell-based;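 also: intracellular parasites grown in NIH/3T3 mouse fibroblasts as host cells; luminescent beta-galactosidase reporter signal from transgenic T. cruzi replicating inside host cells; inhibitors lower the luminescence signal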
# [10] = NIH3T3 cell viability loss – ATP luminescence, mouse fibroblasts, counter-screen, dose response (AID 2010); format: functional, cell-based;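 also: cells exposed to compound for about 90 hours before reading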
# [11] = molecular target: Trypsin (Sus scrofa, UniProt P00761); test: trypsin protease activity blockade – biochemical, quenched peptide fluorescence, cherry-pick, selectivity assay for Rce1 protease inhibitor project, dose response (AID 488789)
# [12] = molecular target: CAAX prenyl protease 2 (Saccharomyces cerevisiae S288c, UniProt Q03530); format: biochemical
# [13] = molecular target: T3, E3 ubiquitin-protein ligase XIAP (Homo sapiens, UniProt P98170); test: Counter Screen using XIAP-Bir3 for Chemical Antagonists of Bir1/2 domains of IAP-family anti-apoptotic proteins. [Related pubchem assays (depositor defined):AID1018, AID1449, AID1514, AID1638, AID1749, AID1750, AID488957, AID488963]
# [14] = molecular target: T3, E3 ubiquitin-protein ligase XIAP; test: small molecules displacing peptide from XIAP – biochemical, IAP family, fluorescence polarization (AID 1018); format: functional
# [15] = molecular target: DNA dC->dU-editing enzyme APOBEC-3A (Homo sapiens, UniProt P31941); test: Dose Response confirmation of small molecule APOBEC3A DNA Deaminase Inhibitors via a fluorescence-based single-stranded DNA deaminase assay. [Related pubchem assays (depositor defined):AID493011, AID493024]; format: functional
# [16] = molecular target: DNA dC->dU-editing enzyme APOBEC-3G (Homo sapiens, UniProt Q9HC16); format: functional;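 also: Dose-response counterscreen measuring inhibition of APOBEC3G DNA deaminase activity, run while confirming APOBEC3A inhibitors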
# [17] = molecular target: Peroxisome proliferator-activated receptor gamma/Nuclear receptor coactivator 1 (Homo sapiens, UniProt P37231); test: TR-FRET dose response biochemical High Throughput Screening assay for agonists of the steroid receptor coactivator 1 (SRC-1) recruitment by the peroxisome proliferator-activated receptor gamma (PPAR gamma): non-selective agonists. [Related pubchem assays (depositor defined):AID1300, AID1808, AID504735, AID631]; format: protein assay
# [18] = molecular target: Peroxisome proliferator-activated receptor gamma/Nuclear receptor coactivator 3 (Homo sapiens, UniProt P37231); test: TR-FRET dose response biochemical High Throughput Screening assay for agonists of the steroid receptor coactivator 3 (SRC-3) recruitment by the peroxisome proliferator-activated receptor gamma (PPAR gamma): non-selective agonists. [Related pubchem assays: 1301 (Confirmation screen.), 1048 (Primary screen.)]; format: functional
# [19] = molecular target: Peroxisome proliferator-activated receptor gamma/Nuclear receptor coactivator 2 (Homo sapiens, UniProt P37231); test: TR-FRET dose response biochemical High Throughput Screening assay for agonists of the steroid receptor coactivator 2 (SRC-2) recruitment by the peroxisome proliferator-activated receptor gamma (PPAR gamma): non-selective agonists. [Related pubchem assays: 1297, 1032 ]; format: functional
# [20] = molecular target: Cytochrome P450 2C19 (Homo sapiens, UniProt P33261); test: Cytochrome panel assay with activity outcomes. Panel member name: p450-cyp2c19 Compounds with AC50 equal or less than 10 uM are considered active; format: functional; conditions: read-out: AC50
# [21] = molecular target: T4, Coagulation factor XII (Homo sapiens, UniProt P00748); format: functional;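 also: activated factor XIIa alpha cleaving a fluorogenic AMC peptide substrate; inhibitor potency from loss of enzyme activity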
# T4 sequence (P00748 whole entry): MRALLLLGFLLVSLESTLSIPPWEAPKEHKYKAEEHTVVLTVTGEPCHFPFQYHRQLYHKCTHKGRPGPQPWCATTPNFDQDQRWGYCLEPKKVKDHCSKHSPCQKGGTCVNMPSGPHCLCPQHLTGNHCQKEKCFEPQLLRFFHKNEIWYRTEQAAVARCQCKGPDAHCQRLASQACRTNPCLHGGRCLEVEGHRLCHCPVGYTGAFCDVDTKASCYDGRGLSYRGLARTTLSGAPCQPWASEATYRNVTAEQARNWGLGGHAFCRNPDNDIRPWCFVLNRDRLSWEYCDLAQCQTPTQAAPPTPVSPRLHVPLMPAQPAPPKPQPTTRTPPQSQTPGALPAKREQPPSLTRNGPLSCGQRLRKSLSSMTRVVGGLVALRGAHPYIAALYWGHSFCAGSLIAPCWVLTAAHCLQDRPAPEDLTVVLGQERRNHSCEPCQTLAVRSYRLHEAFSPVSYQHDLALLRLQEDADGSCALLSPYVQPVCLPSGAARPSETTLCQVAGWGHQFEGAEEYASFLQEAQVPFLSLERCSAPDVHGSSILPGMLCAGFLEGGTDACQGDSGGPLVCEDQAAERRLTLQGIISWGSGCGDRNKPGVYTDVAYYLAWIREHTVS
# [22] = molecular target: G-protein coupled receptor 55 (Homo sapiens, UniProt Q9Y2T6); test: inhibition of LPI-stimulated GPR55 beta-arrestin translocation – imaging, U2OS, beta-arrestin-GFP, LPI agonist, primary screen (AID 2013); format: functional;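 also: antagonist potency measured as reduced agonist-driven arrestin aggregation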
# [23] = molecular target: T5, Protein skinhead-1 (Caenorhabditis elegans, UniProt P34707); format: functional
# T5 sequence (P34707 whole entry): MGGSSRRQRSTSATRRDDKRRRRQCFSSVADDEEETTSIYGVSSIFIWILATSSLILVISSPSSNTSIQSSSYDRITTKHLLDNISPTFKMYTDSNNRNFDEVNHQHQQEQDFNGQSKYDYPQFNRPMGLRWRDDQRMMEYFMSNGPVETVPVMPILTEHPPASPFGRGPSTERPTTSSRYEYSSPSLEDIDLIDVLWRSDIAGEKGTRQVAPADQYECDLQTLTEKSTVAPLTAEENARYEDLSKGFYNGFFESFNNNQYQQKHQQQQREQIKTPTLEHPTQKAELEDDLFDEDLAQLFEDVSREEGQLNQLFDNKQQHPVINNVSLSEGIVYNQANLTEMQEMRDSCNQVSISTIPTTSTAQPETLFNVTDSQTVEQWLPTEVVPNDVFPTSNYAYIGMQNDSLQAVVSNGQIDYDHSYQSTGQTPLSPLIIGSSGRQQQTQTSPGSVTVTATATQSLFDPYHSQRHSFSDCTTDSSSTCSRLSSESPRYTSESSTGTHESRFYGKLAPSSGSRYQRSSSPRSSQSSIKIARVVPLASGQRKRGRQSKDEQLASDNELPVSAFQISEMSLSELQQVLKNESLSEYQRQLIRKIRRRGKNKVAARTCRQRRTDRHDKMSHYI
# [24] = molecular target: T6, Carboxy-terminal domain RNA polymerase II polypeptide A small phosphatase 1 (Homo sapiens, UniProt Q9GZU7); test: CTDSP1 inhibitors, concentration-response, biochemical, absorbance readout, ultra-high-throughput screen actives (AID 540297); format: functional
# T6 sequence (Q9GZU7 whole entry): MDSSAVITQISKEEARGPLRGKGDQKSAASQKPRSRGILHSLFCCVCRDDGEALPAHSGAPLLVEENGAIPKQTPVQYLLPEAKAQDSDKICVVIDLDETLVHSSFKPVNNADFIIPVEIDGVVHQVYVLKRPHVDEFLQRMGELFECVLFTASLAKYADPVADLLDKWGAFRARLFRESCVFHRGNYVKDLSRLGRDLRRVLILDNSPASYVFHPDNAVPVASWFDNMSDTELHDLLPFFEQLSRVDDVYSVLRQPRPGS
# [25] = molecular target: T7, Tyrosine-protein phosphatase non-receptor type 7 (Homo sapiens, UniProt P35236); test: SAR analysis of chemical inhibitors of HePTP using a Fluorescent assay - Set 2. [Related pubchem assays (depositor defined):AID1059, AID1077, AID1661, AID2085, AID521]; format: functional
# T7 sequence (P35236 whole entry): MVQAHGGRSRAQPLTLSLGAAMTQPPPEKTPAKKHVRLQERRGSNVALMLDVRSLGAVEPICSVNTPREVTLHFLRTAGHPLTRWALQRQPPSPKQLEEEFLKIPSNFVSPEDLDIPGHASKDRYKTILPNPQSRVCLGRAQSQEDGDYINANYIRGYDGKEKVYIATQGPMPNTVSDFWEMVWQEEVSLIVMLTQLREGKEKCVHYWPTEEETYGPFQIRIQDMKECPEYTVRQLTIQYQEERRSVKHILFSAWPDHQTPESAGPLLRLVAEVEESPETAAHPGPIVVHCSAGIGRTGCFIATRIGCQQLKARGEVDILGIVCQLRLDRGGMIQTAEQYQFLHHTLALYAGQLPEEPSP
# [26] = molecular target: Dual specificity protein phosphatase 3 (Homo sapiens, UniProt P51452); test: SAR VHR1 Fluorescent Assay for In Vitro dose response studies Set 2. [Related pubchem assays (depositor defined):AID1654, AID1661, AID1878]; format: functional
# [27] = molecular target: T7, Tyrosine-protein phosphatase non-receptor type 7; test: redox-active compounds inhibiting HePTP phosphatase – biochemical, fluorescence, mechanism study (AID 2068); format: functional
# [28] = test system: INS1; test: beta-cell survival under cytokine stress – INS-1E, ATP luminescence, dry powder, dose response (AID 488844); format: functional, cell-based; conditions: Rattus norvegicus
# [29] = molecular target: Albumin (Bos taurus, UniProt P02769); test: Counterscreen for inhibitors of T-cell receptor (TCR)-CD3 interaction: Fluorescence-based biochemical high throughput dose response assay to identify inhibitors of T-cell receptor (TCR)-CD3 interaction using a TAMRA-labeled BSA probe.; format: functional
# Albumin, sequence (P02769 whole entry): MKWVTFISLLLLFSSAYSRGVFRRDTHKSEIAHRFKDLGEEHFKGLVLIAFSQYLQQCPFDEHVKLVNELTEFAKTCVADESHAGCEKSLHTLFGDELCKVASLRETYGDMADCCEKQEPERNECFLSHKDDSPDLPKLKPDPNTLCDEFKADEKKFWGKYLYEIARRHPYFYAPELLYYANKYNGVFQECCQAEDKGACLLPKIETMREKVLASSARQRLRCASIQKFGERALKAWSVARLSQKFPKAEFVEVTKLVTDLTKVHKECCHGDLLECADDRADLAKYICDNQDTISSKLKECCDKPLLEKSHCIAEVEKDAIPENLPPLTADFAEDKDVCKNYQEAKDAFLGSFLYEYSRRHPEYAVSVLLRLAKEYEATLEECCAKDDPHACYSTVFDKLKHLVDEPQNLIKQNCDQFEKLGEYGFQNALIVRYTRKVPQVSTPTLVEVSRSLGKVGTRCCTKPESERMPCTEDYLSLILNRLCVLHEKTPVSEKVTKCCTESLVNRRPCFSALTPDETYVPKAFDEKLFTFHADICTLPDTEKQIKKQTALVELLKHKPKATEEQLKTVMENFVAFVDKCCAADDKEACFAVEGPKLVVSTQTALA
# T3 sequence (P98170 whole entry): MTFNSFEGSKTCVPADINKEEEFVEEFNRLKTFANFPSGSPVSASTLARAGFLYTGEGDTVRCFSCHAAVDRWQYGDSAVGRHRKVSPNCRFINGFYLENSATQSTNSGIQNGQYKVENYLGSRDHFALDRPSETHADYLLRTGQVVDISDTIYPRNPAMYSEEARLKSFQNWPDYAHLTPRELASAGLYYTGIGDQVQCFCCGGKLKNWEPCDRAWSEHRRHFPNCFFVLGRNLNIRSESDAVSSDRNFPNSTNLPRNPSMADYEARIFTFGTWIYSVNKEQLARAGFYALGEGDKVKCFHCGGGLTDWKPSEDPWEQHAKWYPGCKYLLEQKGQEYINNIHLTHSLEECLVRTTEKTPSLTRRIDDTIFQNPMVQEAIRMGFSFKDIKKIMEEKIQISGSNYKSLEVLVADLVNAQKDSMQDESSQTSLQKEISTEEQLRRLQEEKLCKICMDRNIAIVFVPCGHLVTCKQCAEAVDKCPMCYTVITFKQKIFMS
# Intestinal-type alkaline phosphatase (Homo sapiens, UniProt P09923), sequence (P09923 whole entry): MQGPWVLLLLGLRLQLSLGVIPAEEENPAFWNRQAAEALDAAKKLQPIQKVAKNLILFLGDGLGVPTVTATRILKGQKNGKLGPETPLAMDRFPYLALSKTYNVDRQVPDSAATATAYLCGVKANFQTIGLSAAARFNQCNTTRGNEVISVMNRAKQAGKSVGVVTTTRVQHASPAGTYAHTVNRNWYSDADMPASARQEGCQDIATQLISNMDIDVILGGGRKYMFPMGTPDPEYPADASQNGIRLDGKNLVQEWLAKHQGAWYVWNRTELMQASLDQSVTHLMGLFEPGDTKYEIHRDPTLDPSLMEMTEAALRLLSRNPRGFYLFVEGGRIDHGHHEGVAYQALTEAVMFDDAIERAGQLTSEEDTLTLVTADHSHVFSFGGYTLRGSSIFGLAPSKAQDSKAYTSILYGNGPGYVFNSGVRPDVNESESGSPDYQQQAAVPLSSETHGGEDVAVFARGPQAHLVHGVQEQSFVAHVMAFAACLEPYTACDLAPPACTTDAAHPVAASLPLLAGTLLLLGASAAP
# DNA dC->dU-editing enzyme APOBEC-3G, sequence (Q9HC16 whole entry): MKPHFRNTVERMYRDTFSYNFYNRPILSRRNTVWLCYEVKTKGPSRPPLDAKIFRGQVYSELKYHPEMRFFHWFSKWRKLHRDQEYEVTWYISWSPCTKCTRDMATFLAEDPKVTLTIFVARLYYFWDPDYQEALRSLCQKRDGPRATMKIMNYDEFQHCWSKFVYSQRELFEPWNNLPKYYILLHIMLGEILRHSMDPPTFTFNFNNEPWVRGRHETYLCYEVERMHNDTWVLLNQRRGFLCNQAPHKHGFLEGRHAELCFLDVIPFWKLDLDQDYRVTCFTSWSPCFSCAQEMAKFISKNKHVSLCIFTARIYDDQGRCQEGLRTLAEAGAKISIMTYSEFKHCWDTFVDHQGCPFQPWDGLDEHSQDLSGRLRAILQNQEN
# DNA dC->dU-editing enzyme APOBEC-3A, sequence (P31941 whole entry): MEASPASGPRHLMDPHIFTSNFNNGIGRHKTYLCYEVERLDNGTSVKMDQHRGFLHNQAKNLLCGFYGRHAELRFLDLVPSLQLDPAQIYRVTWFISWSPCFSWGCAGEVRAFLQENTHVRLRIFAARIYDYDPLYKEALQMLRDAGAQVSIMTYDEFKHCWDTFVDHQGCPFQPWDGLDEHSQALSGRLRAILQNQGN
# G-protein coupled receptor 55, sequence (Q9Y2T6 whole entry): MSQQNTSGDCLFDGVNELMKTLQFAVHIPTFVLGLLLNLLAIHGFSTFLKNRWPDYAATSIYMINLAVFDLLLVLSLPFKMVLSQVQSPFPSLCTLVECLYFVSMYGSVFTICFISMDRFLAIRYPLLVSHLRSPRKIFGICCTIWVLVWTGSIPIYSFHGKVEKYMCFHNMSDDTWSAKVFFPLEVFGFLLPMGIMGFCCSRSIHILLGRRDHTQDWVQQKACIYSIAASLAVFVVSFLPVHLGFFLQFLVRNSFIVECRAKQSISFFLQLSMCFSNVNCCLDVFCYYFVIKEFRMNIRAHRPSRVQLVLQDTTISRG
# Intestinal-type alkaline phosphatase (Mus musculus, UniProt P24822), sequence (P24822 whole entry): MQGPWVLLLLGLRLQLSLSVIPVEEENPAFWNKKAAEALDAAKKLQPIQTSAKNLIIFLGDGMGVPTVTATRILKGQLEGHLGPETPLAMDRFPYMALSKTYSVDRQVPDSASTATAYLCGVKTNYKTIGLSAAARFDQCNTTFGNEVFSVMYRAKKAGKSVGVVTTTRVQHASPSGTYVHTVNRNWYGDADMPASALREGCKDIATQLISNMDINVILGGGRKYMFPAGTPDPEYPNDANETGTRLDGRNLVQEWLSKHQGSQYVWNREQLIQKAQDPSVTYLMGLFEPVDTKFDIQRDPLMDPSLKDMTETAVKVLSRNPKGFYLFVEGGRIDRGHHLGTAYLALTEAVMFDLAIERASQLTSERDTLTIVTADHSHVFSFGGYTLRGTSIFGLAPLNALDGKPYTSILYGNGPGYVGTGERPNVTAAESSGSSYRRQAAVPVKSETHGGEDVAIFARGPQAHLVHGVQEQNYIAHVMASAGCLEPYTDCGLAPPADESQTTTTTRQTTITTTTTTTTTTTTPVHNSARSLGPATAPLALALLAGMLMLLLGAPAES
# T2 sequence (P65502 whole entry): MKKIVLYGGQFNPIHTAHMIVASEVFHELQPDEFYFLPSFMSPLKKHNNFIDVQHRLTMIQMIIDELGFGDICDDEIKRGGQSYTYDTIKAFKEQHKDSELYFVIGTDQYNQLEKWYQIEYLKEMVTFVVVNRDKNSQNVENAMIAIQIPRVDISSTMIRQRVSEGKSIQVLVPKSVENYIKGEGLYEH
# Dual specificity protein phosphatase 3, sequence (P51452 whole entry): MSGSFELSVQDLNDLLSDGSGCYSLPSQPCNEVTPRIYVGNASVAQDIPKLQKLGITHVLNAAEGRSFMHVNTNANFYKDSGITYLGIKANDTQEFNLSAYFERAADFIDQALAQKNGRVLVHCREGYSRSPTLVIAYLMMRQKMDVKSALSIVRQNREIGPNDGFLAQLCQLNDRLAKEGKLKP
# Cytochrome P450 2C19, sequence (P33261 whole entry): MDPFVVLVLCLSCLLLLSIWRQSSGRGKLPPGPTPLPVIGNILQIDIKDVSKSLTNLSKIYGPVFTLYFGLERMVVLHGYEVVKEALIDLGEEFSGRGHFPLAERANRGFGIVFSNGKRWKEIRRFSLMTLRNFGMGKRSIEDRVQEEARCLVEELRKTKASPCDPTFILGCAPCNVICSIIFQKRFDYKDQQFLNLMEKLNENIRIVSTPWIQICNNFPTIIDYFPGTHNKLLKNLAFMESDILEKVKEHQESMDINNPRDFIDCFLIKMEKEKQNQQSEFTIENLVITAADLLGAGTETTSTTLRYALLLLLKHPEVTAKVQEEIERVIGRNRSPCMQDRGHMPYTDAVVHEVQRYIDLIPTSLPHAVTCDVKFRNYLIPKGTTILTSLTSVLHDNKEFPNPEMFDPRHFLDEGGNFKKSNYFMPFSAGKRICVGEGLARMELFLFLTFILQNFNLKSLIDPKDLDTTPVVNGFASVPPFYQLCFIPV
# Trypsin, sequence (P00761 whole entry): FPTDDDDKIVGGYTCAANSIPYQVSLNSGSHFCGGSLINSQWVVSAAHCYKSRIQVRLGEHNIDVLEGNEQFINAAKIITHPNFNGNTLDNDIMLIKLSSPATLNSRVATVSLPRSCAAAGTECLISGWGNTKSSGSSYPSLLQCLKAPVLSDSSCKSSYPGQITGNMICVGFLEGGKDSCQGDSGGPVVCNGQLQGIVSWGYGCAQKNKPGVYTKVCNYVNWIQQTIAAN
# CAAX prenyl protease 2, sequence (Q03530 whole entry): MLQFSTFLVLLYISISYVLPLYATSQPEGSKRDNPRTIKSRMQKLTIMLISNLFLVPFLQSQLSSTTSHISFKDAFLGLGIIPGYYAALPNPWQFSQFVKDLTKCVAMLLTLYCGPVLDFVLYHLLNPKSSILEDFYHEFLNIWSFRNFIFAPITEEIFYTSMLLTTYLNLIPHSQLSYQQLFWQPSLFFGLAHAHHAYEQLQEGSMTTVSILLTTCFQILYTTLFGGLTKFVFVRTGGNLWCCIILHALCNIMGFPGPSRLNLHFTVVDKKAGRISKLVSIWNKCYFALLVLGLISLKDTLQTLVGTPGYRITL
smiles,measurement,setting,value
CCN(C(=O)CCN1C(=O)/C(=C/c2ccccc2)SC1=S)C1CCS(=O)(=O)C1 (stereo not drawn),IC50,[1],> 25 µM (active)
same,CC50,[2],22.1 µM (active)
O=C(NNC(=O)c1cc2cc(Br)ccc2oc1=O)c1ccc(O)cc1O,IC50,[3],12.9 µM (active)
same,IC50,[4],> 100 µM (inactive)
same,IC50,[5],> 100 µM (inactive)
same,IC50,[6],> 79 µM (inactive)
same,IC50,[7],16.3 µM (active)
same,IC50,[8],44.7 µM (active)
O=C(CSc1nc2ccccc2s1)N1N=C(c2cccs2)CC1c1ccc(F)cc1 (stereo not drawn),EC50,[9],1.06 µM (active)
same,EC50,[10],> 60 µM (not active)
same,AC50,[11],24.5 µM (active)
same,AC50,[12],12.1 µM (active)
COc1ccc(C(=O)N(CN2CCCC2=O)c2ccccc2OC)cc1OC,IC50,[13],> 100 µM (inactive)
same,IC50,[14],> 100 µM (not active)
Cc1ccn(C)c(=N)c1,IC50,[15],7.71 µM (active)
same,IC50,[16],7.58 µM (active)
Cn1c(=O)cc(SCC(=O)NCCCN2CCOCC2)c2ccc(Cl)cc21,EC50,[17],> 79.4 µM (inactive)
same,EC50,[18],> 79.4 µM (not active)
same,EC50,[19],> 79.4 µM (not active)
same,AC50,[20],10 µM (inconclusive)
CCn1nc(C)c(CNC(=O)c2cc(COc3ccc(F)cc3Cl)on2)c1C,IC50,[21],> 50 µM (inactive)
CCCCOc1ccccc1NC(=O)c1scc2c1OCCO2,IC50,[22],3.01 µM (active)
Clc1ccc(-c2nc3cc(CN4CCCCC4)ccc3o2)cc1,IC50,[1],> 25 µM (active)
same,CC50,[2],> 25 µM (active)
same,IC50,[23],4.15 µM (active)
Clc1ccccc1CN1CCN(CCCc2ccccc2)CC1,IC50,[21],> 50 µM (inactive)
Cc1cc(-c2ccccc2)nc2c(Br)c(C(=O)O)nn12,IC50,[15],25.2 µM (active)
same,IC50,[16],37.7 µM (active)
same,IC50,[24],2.44 µM (active)
COc1ccc(OC)c(C(=S)NCc2ccc(C(F)(F)F)cc2)c1,IC50,[25],38.4 µM (active)
same,IC50,[26],48.4 µM (active)
O=C(Nc1ccccc1)Nc1ccc2nc(-c3ccco3)c(-c3ccco3)nc2c1,IC50,[27],0.575 µM (active)
COc1ccc(S(=O)(=O)N(C)C[C@@H]2Oc3c(NC(=O)c4cc(C)nn4C)cccc3C(=O)N([C@@H](C)CO)C[C@H]2C)cc1,AC50,[28],> 260 µM (inactive)
COc1cc(/C=N/NC(=O)c2cc(O)cc(O)c2)ccc1OC(=O)c1ccccc1,IC50,[3],4.43 µM (active)
same,IC50,[4],26.8 µM (active)
same,IC50,[5],77.1 µM (active)
same,IC50,[29],> 94.1 µM (inactive)
C#CCOc1c(Br)cc(/C=N\NC(=O)CN2CCOCC2)cc1OCC,IC50,[22],3.59 µM (active)
